Source: US7235548B2, “Compounds and their use as positive AMPA receptor modulators” (NeuroSearch A/S, priority 1998, dated 2007)

Test system: AMPA receptors
Test: AMPA evoked single neuron spike activity in rat hippocampus (iontophoretic application of AMPA), in vivo
Conditions: for AMPA evoked spike activity: rat hippocampus
Description: Evaluation of the in vivo effects of positive AMPA modulators (PAMs) on the AMPA evoked spike activity in rat hippocampus. Hippocampal single neuron spike activity is strongly influenced by excitatory input, and iontophoretic application of AMPA induces spike activity in vivo in a dose-dependent manner ([…] et al. 1998). […] PAMs potentate AMPA receptor activation in vitro, and if this mechanism also operates in vivo, the i.v. injection of an PAM should enhance AMPA evoked spike activity. Thus, the aim of this study was to test the in vivo effect of a group of in vitro active PAMs. This have been done by studying their ability to enhances AMPA evoked spike activity after i.v. administration. Experiments were performed on male Wistar rats (M & B, Denmark) weighing 280-380 g, housed in two per cage with free access to food and water. […] Additional anaesthetic was given i.v. if the rat responded to a pinch of the back foot. The trachea was cannulated and the rats were placed in a stereotaxic frame and ventilated by a rodent ventilator (Ugo Basile, Comerio-Varese, Italy). Core body temperature was maintained at 37.5° C. by a DC heating pad. The left and dorsal part of the parietal bone was removed by craniotomy and the dura was withdrawn exposing the pia mater and underlying brain, covered with 0.9% NaCl. AMPA (Sigma, USA) was dissolved at 10 mM in 0.2 M NaCl. NMDA (Sigma, USA) was dissolved at 100 mM in 100 mM NaCl. Both solutions were adjusted to pH 7.5-8.0 with NaOH. COMPOUND 61 was dissolved in 200 mM CH3SO3^- Na^+ at a contration of 10 mM for iontophoretic application ([…]) and in isotonic glucose (278 mM) for i.v. administration. Cyclothiazide, COMPOUND 63, COMPOUND 56, COMPOUND 115 and COMPOUND 114 were all dissolved at in 5% chremophore solution at a concentration of 5 mg ml^-1. Evoked neuronal spike activity was analyzed on-line by a computer, saving single spikes and time of event. Neuronal spike activity (number of action potentials s^-1) was monitored on a pulse rate histogram together with indicators for AMPA, COMPOUND 61 and vehicle application. Extracellular recordings of single hippocampal neuron spikes were made with five-barrel glass microelectrodes (5B120F-6, World Precision Instruments Inc., Sarasota, Fla., USA) with a tip diameter of 10-12 μm. The individual barrels were filled with 5 M NaCl (recording), 400 mM NaCl (current balancing), 10 mM COMPOUND 61 in 200 mM CH3SO3^- Na^+ (pH 4.7), 200 mM CH3SO3^- Na^+ (pH 4.7, Vehicle), and the last barrel was filled with the AMPA. Experiments were performed on hippocampal neurons (A=5.5-6.5 mm, L=1.5-2.0 mm, H=2.0-3.0 mm, according to Paxinos & Watson, 1986). Neuronal spike activity was evoked by iontophoretic application of AMPA for periods of 10 to 15 s with 1.5 min intervals. Single neuron spike activity was amplified 5000 times with a bandwidth of 0.3 and 3 kHz (CyberAmp 320 with a Al 402 x50 smartprobe, Axon Instruments, California, USA). On-line and off-line analyses were performed by the Spike2 program with a 1401 plus interface (Cambridge Electronic Design Limited, England). The computer program also recorded mean arterial blood pressure and monitored and controlled iontophoretic application. AMPA was ejected into hippocampus in regular cycles of 100-105 s. […] Recording of neuronal spike activity was continued for at least 45 min after intravenous injection. The PAM reactivity was tested by microiontophoretic application of COMPOUND 61 (20 nA, FIG.).

`CN1CCN(S(=O)(=O)c2ccc3c(c2)S(=O)(=O)NC(C2CCCCC2)N3)CC1` (centres unmarked) [Compound 61, 3-Cyclohexyl-7-(4′-methylpiperazino)sulfonyl-1,2,3,4-tetrahydro-1,2,4-benzothiadiazine-1,1-dioxide] was tested, and the “onset of the enhancement after i.v. administration” value (10 mg kg^−1 i.v.) was 20 min, the “AMPA evoked spike activity” value (10 mg kg^−1 i.v.) was “enhanced” and the “increase in AMPA evoked spike activity” value (10 mg kg^−1 i.v., FIG. 14) was 3 fold. The “AMPA evoked spike activity” value (iontophoretic application of the compound (20 nA)) was “enhanced”.
In the case of `O=S1(=O)NC(C2CCCCC2)Nc2ccc(S(=O)(=O)N3CCOCC3)cc21` (centres unmarked) [Compound 63, 3-Cyclohexyl-7-morpholinosulfonyl-1,2,3,4-tetrahydro-1,2,4-benzothiadiazine-1,1-dioxide], the “initial effect on the AMPA responses” value (10 mg kg^−1 i.v., before onset of enhancement) is reported as “initial inhibition”, the “large AMPA responses, evoked by high intensity AMPA stimulation” value (10 mg kg^−1 i.v., high intensity AMPA (17 nA)) is reported as “only marginal effect” and the “small AMPA responses, evoked by low intensity AMPA stimulation” value (10 mg kg^−1 i.v., low intensity AMPA (12 nA)) is reported as “enhanced”.
In the case of `Cc1cc2c(cc1S(=O)(=O)N1CCCCC1)S(=O)(=O)NC(C1CCCC1)N2` (centres unmarked) [Compound 114, 3-Cyclopentyl-6-methyl-7-piperidinosulfonyl-1,2,3,4-tetrahydro-1,2,4-benzothia-diazine-1,1-dioxide], the “AMPA evoked spike activity” value (10 mg kg^−1 i.v.) is reported as “enhanced”, the “increase of the AMPA responses” value (10 mg kg^−1 i.v., control level of the AMPA responses low, FIG. 15) is reported as 10 fold and the “AMPA response after administration” value (10 mg kg^−1 i.v., larger control responses, from 124, FIG. 16) is reported as 204 spikes response^−1. For the same molecule, the “enhancement of the AMPA responses” value (10 mg kg^−1 i.v., larger control responses, FIG. 16) was “approximately doubled” and the “AMPA response after administration, mean response” value (10 mg kg^−1 i.v., low control level, from 21, FIG. 15) was 209 spikes response^−1.
With `Cc1cc2c(cc1S(=O)(=O)N1CCOCC1)S(=O)(=O)NC(C1CCCCC1)N2` (centres unmarked) [Compound 115, 3-Cyclohexyl-6-methyl-7-morpholinosulfonyl-1,2,3,4-tetrahydro-1,2,4-benzothiadiazine-1,1-dioxide] the “onset of the enhancement after i.v. administration” value (10 mg kg^−1 i.v.) was 2 min and the “AMPA evoked spike activity” value (10 mg kg^−1 i.v.) was “enhancement”.
